Test system: 6-OHDA-lesioned rats
Test: Assessment of activity in 6-OHDA-lesioned rats (induction of rotational activity)
Type: in vivo, rat
Conditions: p.o., 63.4 μmole/kg, after benserazide 10 mg/kg; rotations over 4 hours; male Wistar rats

Which “Duration of activity as % of that of L-Dopa” value does the source give for CC(C)CC(=O)Oc1ccc(C[C@H](N)C(N)=O)cc1OC(=O)CC(C)C.Cl [Example 5, (S)-2-[3,4-Bis-(3-methylbutyryloxy)-phenyl]-1-carbamoylethylammonium chloride] here?
The value was 71%.

What about the “Peak activity as % of that of L-Dopa” value of the same compound?
Its value is 118%.

What about the “Total activity (AUC activity, area under the locomotor-activity/time curve) as % of that of L-Dopa” value of the same compound?
The value was 89%.

— patent publication US20090239941A1, “AMINO ACID DERIVATIVES” (PROXIMAGEN LTD., priority 2006, published 2009)
